IC50 data for 18 molecules are collected here from US12319672B2, “Alpha-D-galactopyranoside derivatives” (Idorsia Pharmaceuticals Ltd, priority 2019, dated 2025).

One test addresses human Gal-1 (hGal-1). Briefly: Competitive binding assay: binding of biotinylated hGal-1 to microplate-adsorbed asialofetuin (ASF). As to conditions: Activities on hGal-1; mean values of several measurements. The method, boiled down:
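Compounds diluted in DMSO competed with biotinylated hGal-3 or hGal-1 (300-1000 ng/mL) for binding to plate-adsorbed asialofetuin for 3 h at 4° C. Bound galectin was detected with streptavidin-peroxidase (80 ng/mL, 1 h, 4° C) and ABTS substrate; IC50 reported as mean of several measurements.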

For a further test, the target named is human Gal-3 (hGal-3) (Homo sapiens (Human), UniProt P17931). Briefly: Competitive binding assay: binding of biotinylated hGal-3 to microplate-adsorbed asialofetuin (ASF). Particulars: Activity on hGal-3; mean values of several measurements. The method, boiled down: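 Biotinylated hGal-3 (300-1000 ng/mL) bound to ASF-coated wells with serially diluted compound, 3 h at 4° C. After washing, bound protein was detected with streptavidin-peroxidase (80 ng/mL, 1 h, 4° C) and ABTS substrate; IC50 values are means of several measurements.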
human Gal-3 (hGal-3), sequence (P17931 whole entry): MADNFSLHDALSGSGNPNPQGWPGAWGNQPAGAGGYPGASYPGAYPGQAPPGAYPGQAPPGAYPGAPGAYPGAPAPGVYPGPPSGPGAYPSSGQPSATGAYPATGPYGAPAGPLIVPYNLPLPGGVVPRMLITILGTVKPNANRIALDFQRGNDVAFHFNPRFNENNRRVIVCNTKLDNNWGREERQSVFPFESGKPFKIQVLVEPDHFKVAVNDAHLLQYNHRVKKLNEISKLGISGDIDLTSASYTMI

human Gal-1 (hGal-1), sequence (P09382 2-135 limits assumed): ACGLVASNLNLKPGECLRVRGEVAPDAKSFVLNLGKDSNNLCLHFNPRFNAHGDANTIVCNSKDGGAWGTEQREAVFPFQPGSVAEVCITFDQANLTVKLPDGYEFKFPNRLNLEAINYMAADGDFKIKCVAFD

Turning to `CO[C@@H]1[C@@H](n2cc(-c3cc(F)cc(Cl)c3)nn2)[C@@H](O)[C@@H](CO)O[C@@H]1Cc1cc(C2CCOCC2)on1` [Ex 1.187], the values for the IC50 on human Gal-1 (hGal-1) and at human Gal-3 (hGal-3) were 5980 nM and 450 nM, respectively.

As for `CN1CCC(C2=NOC(C[C@H]3O[C@H](CO)[C@H](O)[C@H](n4cc(-c5cc(F)c(F)c(F)c5)nn4)[C@H]3O)C2)CC1` (mixture of isomers) [Example 3.02, (2R,3R,4R,5R,6R)-2-(hydroxymethyl)-6-(((RS)-3-(1-methylpiperidin-4-yl)-4,5-dihydroisoxazol-5-yl)methyl)-4-(4-(3,4,5-trifluorophenyl)-1H-1,2,3-triazol-1-yl)tetrahydro-2H-pyran-3,5-diol], the IC50 on human Gal-1 (hGal-1) turned out to be 4620 nM; on human Gal-3 (hGal-3) it was 340 nM.

Consider `CO[C@@H]1[C@@H](n2cc(-c3ccc(C)c(F)c3F)nn2)[C@@H](O)[C@@H](CO)O[C@@H]1Cc1cc([C@H]2C[C@H]2O)on1` [Ex 1.349], for which the IC50 was determined as 7020 nM at human Gal-1 (hGal-1) and 180 nM on human Gal-3 (hGal-3).

In the case of `CO[C@@H]1[C@@H](n2cc(-c3cc(F)c(F)c(F)c3)nn2)[C@@H](O)[C@@H](CO)O[C@@H]1Cc1cc(C2CCN(C(=O)N3CCCCC3)CC2)on1` [Example 3.66, (4-(3-(((2R,3R,4S,5R,6R)-5-hydroxy-6-(hydroxymethyl)-3-methoxy-4-(4-(3,4,5-trifluorophenyl)-1H-1,2,3-triazol-1-yl)tetrahydro-2H-pyran-2-yl)methyl)isoxazol-5-yl)piperidin-1-yl)(piperidin-1-yl)methanone], the values for the IC50 on human Gal-1 (hGal-1) and at human Gal-3 (hGal-3) were 3590 nM and 140 nM, respectively.

With `CO[C@@H]1[C@@H](n2cc(-c3cc(F)c(F)c(F)c3)nn2)[C@@H](O)[C@@H](CO)O[C@@H]1Cc1cn(C2CCN(C(=O)NC(C)(C)C)CC2)nn1` [Example 4.08, N-(tert-butyl)-4-(4-(((2R,3R,4S,5R,6R)-5-hydroxy-6-(hydroxymethyl)-3-methoxy-4-(4-(3,4,5-trifluorophenyl)-1H-1,2,3-triazol-1-yl)tetrahydro-2H-pyran-2-yl)methyl)-1H-1,2,3-triazol-1-yl)piperidine-1-carboxamide], the IC50 at human Gal-1 (hGal-1) was found to be 67 nM; at human Gal-3 (hGal-3), 10 nM.

With `CO[C@@H]1[C@@H](n2cc(-c3cc(F)c(F)c(F)c3)nn2)[C@@H](O)[C@@H](CO)O[C@@H]1Cn1cc(C2(O)CCC2)nn1` [Example 4.43, (2R,3R,4S,5R,6R)-6-((4-(1-hydroxycyclobutyl)-1H-1,2,3-triazol-1-yl)methyl)-2-(hydroxymethyl)-5-methoxy-4-(4-(3,4,5-trifluorophenyl)-1H-1,2,3-triazol-1-yl)tetrahydro-2H-pyran-3-ol], the IC50 on human Gal-1 (hGal-1) is 4430 nM; at human Gal-3 (hGal-3), 300 nM.

`CO[C@@H]1[C@@H](n2cc(-c3ccc(C)c(F)c3F)nn2)[C@@H](O)[C@@H](CO)O[C@@H]1Cc1cc(C2(C)CCOCC2)no1` [Ex 1.284]: the figures for the IC50 at human Gal-1 (hGal-1) and on human Gal-3 (hGal-3) were 5850 nM and 150 nM, respectively.

In the case of `CO[C@@H]1[C@@H](n2cc(-c3ccc(C)c(F)c3)nn2)[C@@H](O)[C@@H](CO)O[C@@H]1Cc1cc(C2CCN(C(C)=O)CC2)on1` [Ex 1.162], the IC50 on human Gal-1 (hGal-1) was found to be 740 nM; on human Gal-3 (hGal-3) it was 37 nM.

With `CO[C@@H]1[C@@H](n2cc(-c3ccc(C)c(F)c3F)nn2)[C@@H](O)[C@@H](CO)O[C@@H]1Cc1cc(C(C)(C)CN)no1` [Ex 1.336], the figures for the IC50 at human Gal-1 (hGal-1) and on human Gal-3 (hGal-3) were 1880 nM and 23 nM, respectively.

`CC(=O)O[C@@H]1[C@@H](n2cc(-c3cc(F)c(F)c(F)c3)nn2)[C@@H](O)[C@@H](CO)O[C@@H]1CC1CC(C2CCNCC2)=NO1` (mixture of isomers) [Example 3.14, (2R,3R,4S,5R,6R)-5-hydroxy-6-(hydroxymethyl)-2-(((RS)-3-(piperidin-4-yl)-4,5-dihydroisoxazol-5-yl)methyl)-4-(4-(3,4,5-trifluorophenyl)-1H-1,2,3-triazol-1-yl)tetrahydro-2H-pyran-3-yl acetate]: the IC50 is 6840 nM on human Gal-1 (hGal-1) and 320 nM on human Gal-3 (hGal-3).

As to `CO[C@@H]1[C@@H](n2cc(-c3ccc(C)c(F)c3F)nn2)[C@@H](O)[C@@H](CO)O[C@@H]1Cc1cc(C2(CC#N)CC2)no1` [Ex 1.332], the half-inhibitory concentration (IC50) turned out to be 980 nM at human Gal-1 (hGal-1) and 43 nM at human Gal-3 (hGal-3).

Take `CC(C)(C)OC(=O)N1CCC(C2=NOC(C[C@H]3O[C@H](CO)[C@H](O)[C@H](n4cc(-c5cc(F)c(Cl)c(F)c5)nn4)[C@H]3O)C2)CC1` (stereo partly drawn) [Ex 1.101]: the IC50 is 4100 nM on human Gal-1 (hGal-1) and 180 nM at human Gal-3 (hGal-3).

In the case of `Cc1ccc(-c2cn([C@H]3[C@@H](O)[C@@H](CO)O[C@H](Cc4cc(C(C)(C)C)on4)[C@@H]3OCC(=O)O)nn2)c(F)c1F` [Example 2.27, 2-(((2R,3R,4S,5R,6R)-2-((5-(tert-butyl)isoxazol-3-yl)methyl)-4-(4-(2,3-difluoro-4-methylphenyl)-1H-1,2,3-triazol-1-yl)-5-hydroxy-6-(hydroxymethyl)tetrahydro-2H-pyran-3-yl)oxy)acetic acid], the IC50 is 5280 nM at human Gal-1 (hGal-1) and 24 nM on human Gal-3 (hGal-3).

With `CC(C)(C)c1cc(C[C@H]2O[C@H](CO)[C@H](O)[C@H](n3cc(-c4ccc(F)c(F)c4F)nn3)[C@H]2O)on1` [Example 2.49, (2R,3R,4R,5R,6R)-2-((3-(tert-butyl)isoxazol-5-yl)methyl)-6-(hydroxymethyl)-4-(4-(2,3,4-trifluorophenyl)-1H-1,2,3-triazol-1-yl)tetrahydro-2H-pyran-3,5-diol], the IC50 is 640 nM on human Gal-1 (hGal-1) and 53 nM on human Gal-3 (hGal-3).

Take `CO[C@@H]1[C@@H](n2cc(-c3cc(F)c(F)c(F)c3)nn2)[C@@H](O)[C@@H](CO)O[C@@H]1C[C@@H]1CC(c2cc[nH]c(=O)c2)=NO1` [Example 2.07a, 4-((S)-5-(((2R,3R,4S,5R,6R)-5-hydroxy-6-(hydroxymethyl)-3-methoxy-4-(4-(3,4,5-trifluorophenyl)-1H-1,2,3-triazol-1-yl)tetrahydro-2H-pyran-2-yl)methyl)-4,5-dihydroisoxazol-3-yl)pyridin-2(1H)-one]: the IC50 came out at 310 nM at human Gal-1 (hGal-1) and 260 nM on human Gal-3 (hGal-3).

With `CO[C@@H]1[C@@H](n2cc(-c3cc(F)c(F)c(F)c3)nn2)[C@@H](O)[C@@H](CO)O[C@@H]1Cc1cc(C2CCN(S(=N)(=O)C(C)(C)C)CC2)on1` (mixture of isomers) [Example 3.56, (RS)-(2R,3R,4S,5R,6R)-2-(hydroxymethyl)-5-methoxy-6-((5-(1-(2-methylpropan-2-ylsulfonimidoyl)piperidin-4-yl)isoxazol-3-yl)methyl)-4-(4-(3,4,5-trifluorophenyl)-1H-1,2,3-triazol-1-yl)tetrahydro-2H-pyran-3-ol], the IC50 was determined as 610 nM on human Gal-1 (hGal-1) and 20 nM at human Gal-3 (hGal-3).

As to `Cc1ccc(-c2cn([C@H]3[C@@H](O)[C@@H](CO)O[C@H](Cc4cc(C(C)(C)C)no4)[C@@H]3OCc3cnco3)nn2)c(F)c1F` [Example 2.55, (2R,3R,4S,5R,6R)-6-((3-(tert-butyl)isoxazol-5-yl)methyl)-4-(4-(2,3-difluoro-4-methylphenyl)-1H-1,2,3-triazol-1-yl)-2-(hydroxymethyl)-5-(oxazol-5-ylmethoxy)tetrahydro-2H-pyran-3-ol], the figures for the IC50 at human Gal-1 (hGal-1) and at human Gal-3 (hGal-3) were 2720 nM and 120 nM, respectively.

Turning to `CO[C@@H]1[C@@H](n2cc(-c3cc(F)c(F)c(Cl)c3)nn2)[C@@H](O)[C@@H](CO)O[C@@H]1Cc1cc(C2CCN(C(C)=O)CC2)on1` [Ex 1.219], the figures for the IC50 at human Gal-1 (hGal-1) and on human Gal-3 (hGal-3) were 430 nM and 23 nM, respectively.
